The source of these data is US20230295197A1, “STAT5 and STAT6 Degraders and Uses Thereof” (REGENTS OF THE UNIVERSITY OF MICHICAN, priority 2022, published 2023).

Like-named read-outs stand apart in the source and are kept apart here. Some results are limits rather than exact numbers.

The assay concerns the target T1, STAT6 (Homo sapiens, UniProt P42226).
T1 construct: endogenous in cells; host or cells: MOLM-16, KU-812, SKNO1, MB231, L1236
T1 sequence (P42226 1-847): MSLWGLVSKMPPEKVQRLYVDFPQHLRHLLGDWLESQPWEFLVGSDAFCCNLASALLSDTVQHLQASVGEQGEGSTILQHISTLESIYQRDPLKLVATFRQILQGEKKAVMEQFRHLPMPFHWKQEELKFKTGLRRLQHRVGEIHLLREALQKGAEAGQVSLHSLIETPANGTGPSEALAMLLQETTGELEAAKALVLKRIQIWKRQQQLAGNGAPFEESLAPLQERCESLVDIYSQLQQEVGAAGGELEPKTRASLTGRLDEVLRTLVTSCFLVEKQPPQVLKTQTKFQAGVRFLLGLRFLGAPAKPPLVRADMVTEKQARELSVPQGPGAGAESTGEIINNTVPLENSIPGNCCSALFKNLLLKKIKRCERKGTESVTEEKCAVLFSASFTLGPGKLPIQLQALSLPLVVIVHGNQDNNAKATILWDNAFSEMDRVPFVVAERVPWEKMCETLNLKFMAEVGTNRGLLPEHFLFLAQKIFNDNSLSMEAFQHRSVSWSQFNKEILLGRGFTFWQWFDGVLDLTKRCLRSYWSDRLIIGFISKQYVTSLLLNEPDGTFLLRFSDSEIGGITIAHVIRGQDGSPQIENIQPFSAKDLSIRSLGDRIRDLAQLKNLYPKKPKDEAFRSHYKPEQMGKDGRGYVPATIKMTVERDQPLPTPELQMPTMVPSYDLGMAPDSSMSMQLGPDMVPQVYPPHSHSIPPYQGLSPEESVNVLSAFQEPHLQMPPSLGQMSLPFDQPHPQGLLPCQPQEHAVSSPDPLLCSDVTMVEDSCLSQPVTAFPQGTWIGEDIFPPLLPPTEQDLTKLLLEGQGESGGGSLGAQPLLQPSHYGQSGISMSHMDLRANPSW
The assay is described as follows: Immunoblotting (Western blot) analysis of STAT6 degradation efficiency of degraders in treated cells. It counts as cell-based. The method in brief: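 Degradation read by quantitative near-infrared Western blot: equal protein loads (20-40 μg) from compound-treated versus untreated cells, probed overnight at 4° C. for STAT5 or STAT6 with GAPDH reference. Compound concentrations and exposure times as indicated; cells grown in medium with 10% FBS at 37° C.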
On the technique in general: In western blotting, separated proteins are transferred to a membrane and probed.

Where [1] appears, read: MOLM-16 cells, class symbols, read-out: DC50 S6 MOLM-16.
[2] abbreviates: L1236 cells, read-out: DC50 S6 L1236.

What is called DC50 is the concentration giving 50% degradation. For `CC(C)(C)[C@H](NC(=O)c1cc2cc(C(F)(F)P(=O)(O)O)ccc2s1)C(=O)N1Cc2cc(OCC(=O)NCCC#Cc3cccc4c3C(=O)N(C3CCC(=O)NC3=O)C4=O)ccc2C[C@H]1C(=O)N1CCO[C@H](c2ccccc2)C1` (stereo partly drawn) [Compound 537, ((2-(((2S)-1-((3S)-7-(2-((4-(2-(2,6-dioxopiperidin-3-yl)-1,3-dioxoisoindolin-4-yl)but-3-yn-1-yl)amino)-2-oxoethoxy)-3-((R)-2-phenylmorpholine-4-carbonyl)-3,4-dihydroisoquinolin-2(1H)-yl)-3,3-dimethyl-1-oxobutan-2-yl)carbamoyl)benzo[b]thiophen-5-yl)difluoromethyl)phosphonic acid], the DC50 under setting [1] is more than 10 µM.

As for `CC(C)(C)[C@H](NC(=O)c1cc2cc(C(F)(F)P(=O)(O)O)ccc2s1)C(=O)N1Cc2cc(OCC(=O)NCC#Cc3cccc4c3C(=O)N(C3CCC(=O)NC3=O)C4=O)ccc2C[C@H]1C(=O)N1CCC[C@H](c2ccccc2)C1` (stereo partly drawn) [Compound 549, ((2-(((2S)-1-((3S)-7-(2-((3-(2-(2,6-dioxopiperidin-3-yl)-1,3-dioxoisoindolin-4-yl)prop-2-yn-1-yl)amino)-2-oxoethoxy)-3-((R)-3-phenylpiperidine-1-carbonyl)-3,4-dihydroisoquinolin-2(1H)-yl)-3,3-dimethyl-1-oxobutan-2-yl)carbamoyl)benzo[b]thiophen-5-yl)difluoromethyl)phosphonic acid], the DC50 under setting [1] was more than 10 µM.

On to `Cc1ncsc1-c1ccc([C@H](C)NC(=O)[C@@H]2C[C@@H](O)CN2C(=O)[C@@H](NC(=O)CCCCCCCCNC(=O)COc2ccc3c(c2)CN(C(=O)[C@@H](NC(=O)c2cc4cc(C(F)(F)P(=O)(O)O)ccc4s2)C(C)(C)C)[C@H](C(=O)N2CCO[C@H](c4ccccc4)C2)C3)C(C)(C)C)cc1` [Compound 468, (difluoro(2-(((S)-1-((S)-7-(2-((9-(((S)-1-((2S,4R)-4-hydroxy-2-(((S)-1-(4-(4-methylthiazol-5-yl)phenyl)ethyl)carbamoyl)pyrrolidin-1-yl)-3,3-dimethyl-1-oxobutan-2-yl)amino)-9-oxononyl)amino)-2-oxoethoxy)-3-((R)-2-phenylmorpholine-4-carbonyl)-3,4-dihydroisoquinolin-2(1H)-yl)-3,3-dimethyl-1-oxobutan-2-yl)carbamoyl)benzo[b]thiophen-5-yl)methyl)phosphonic acid], for which the DC50 under setting [2] is more than 10 µM and the DC50 under setting [1] was more than 10 µM.

Turning to `CC(C)(C)[C@H](NC(=O)c1cc2cc(C(F)(F)P(=O)(O)O)ccc2s1)C(=O)N1CCN(C(=O)CC(=O)NCCCC#Cc2cccc3c2C(=O)N(C2CCC(=O)NC2=O)C3=O)C[C@H]1C(=O)N1CCC[C@H](c2ccccc2)C1` (stereo partly drawn) [Compound 525, ((2-(((2S)-1-((2S)-4-(3-((5-(2-(2,6-dioxopiperidin-3-yl)-1,3-dioxoisoindolin-4-yl)pent-4-yn-1-yl)amino)-3-oxopropanoyl)-2-((R)-3-phenylpiperidine-1-carbonyl)piperazin-1-yl)-3,3-dimethyl-1-oxobutan-2-yl)carbamoyl)benzo[b]thiophen-5-yl)difluoromethyl)phosphonic acid], the half-maximal degradation concentration (DC50) under setting [1] is more than 10 µM.

Consider `CC(C)(C)[C@H](NC(=O)c1cc2cc(C(F)(F)P(=O)(O)O)ccc2s1)C(=O)N1C[C@@H](NC(=O)CCCCCC#Cc2cccc3c2CN(C2CCC(=O)NC2=O)C3=O)C[C@H]1C(=O)N1CCO[C@H](c2ccccc2)C1` (stereo partly drawn) [Compound 565, ((2-(((2S)-1-((2S,4S)-4-(8-(2-(2,6-dioxopiperidin-3-yl)-1-oxoisoindolin-4-yl)oct-7-ynamido)-2-((R)-2-phenylmorpholine-4-carbonyl)pyrrolidin-1-yl)-3,3-dimethyl-1-oxobutan-2-yl)carbamoyl)benzo[b]thiophen-5-yl)difluoromethyl)phosphonic acid], for which the DC50 by setting is: under setting [2], more than 10 µM; under setting [1], more than 10 µM.

Regarding `CC(C)(C)[C@H](NC(=O)c1cc2cc(C(F)(F)P(=O)(O)O)ccc2s1)C(=O)N1CCN(C(=O)CC(=O)NCCCCCCCCC#Cc2ccc3c(c2)C(=O)N(C2CCC(=O)NC2=O)C3=O)C[C@H]1C(=O)N1CCO[C@H](c2ccccc2)C1` (stereo partly drawn) [Compound 518, ((2-(((2S)-1-((2S)-4-(3-((10-(2-(2,6-dioxopiperidin-3-yl)-1,3-dioxoisoindolin-5-yl)dec-9-yn-1-yl)amino)-3-oxopropanoyl)-2-((R)-2-phenylmorpholine-4-carbonyl)piperazin-1-yl)-3,3-dimethyl-1-oxobutan-2-yl)carbamoyl)benzo[b]thiophen-5-yl)difluoromethyl)phosphonic acid], the DC50 under setting [1] is more than 10 µM.

As for `CC(C)(C)[C@H](NC(=O)c1cc2cc(C(F)(F)P(=O)(O)O)ccc2s1)C(=O)N1Cc2cc(OCC(=O)NCCCCCCCCCC#Cc3cccc4c3C(=O)N(C3CCC(=O)NC3=O)C4=O)ccc2C[C@H]1C(=O)N1CCO[C@H](c2ccccc2)C1` (stereo partly drawn) [Compound 547, ((2-(((2S)-1-((3S)-7-(2-((11-(2-(2,6-dioxopiperidin-3-yl)-1,3-dioxoisoindolin-4-yl)undec-10-yn-1-yl)amino)-2-oxoethoxy)-3-((R)-2-phenylmorpholine-4-carbonyl)-3,4-dihydroisoquinolin-2(1H)-yl)-3,3-dimethyl-1-oxobutan-2-yl)carbamoyl)benzo[b]thiophen-5-yl)difluoromethyl)phosphonic acid], under setting [1], the DC50 was more than 10 µM.

Regarding `Cc1cc([C@H](C(=O)N2C[C@H](O)C[C@H]2C(=O)N[C@@H](CC(=O)NCCCCCCCCNC(=O)CCN(C(=O)[C@@H]2CCCN2C(=O)[C@@H](NC(=O)c2cc3cc(C(F)(F)P(=O)(O)O)ccc3s2)C(C)(C)C)c2ccc(Br)cc2)c2ccc(-c3scnc3C)cc2)C(C)C)on1` [Compound 408, ((2-(((S)-1-((S)-2-((4-bromophenyl)(3-((8-((S)-3-((2S,4R)-4-hydroxy-1-((R)-3-methyl-2-(3-methylisoxazol-5-yl)butanoyl)pyrrolidine-2-carboxamido)-3-(4-(4-methylthiazol-5-yl)phenyl)propanamido)octyl)amino)-3-oxopropyl)carbamoyl)pyrrolidin-1-yl)-3,3-dimethyl-1-oxobutan-2-yl)carbamoyl)benzo[b]thiophen-5-yl)difluoromethyl)phosphonic acid], under “MB231 cells, read-out: DC50 S6 MB231”, the DC50 was more than 10 µM.

On to `CC(C)(C)[C@H](NC(=O)c1cc2cc(C(F)(F)P(=O)(O)O)ccc2s1)C(=O)N1Cc2cc(OCC(=O)NCCCCC#Cc3cccc4c3C(=O)N(C3CCC(=O)NC3=O)C4=O)ccc2C[C@H]1C(=O)N1CCC[C@H](c2ccccc2)C1` (stereo partly drawn) [Compound 555, ((2-(((2S)-1-((3S)-7-(2-((6-(2-(2,6-dioxopiperidin-3-yl)-1,3-dioxoisoindolin-4-yl)hex-5-yn-1-yl)amino)-2-oxoethoxy)-3-((R)-3-phenylpiperidine-1-carbonyl)-3,4-dihydroisoquinolin-2(1H)-yl)-3,3-dimethyl-1-oxobutan-2-yl)carbamoyl)benzo[b]thiophen-5-yl)difluoromethyl)phosphonic acid], for which, under setting [1], the DC50 is more than 10 µM.
